Laboratory results published in PMC11528067, “Structural Bases of Dihydroxy Acid Dehydratase Inhibition and Biodesign for Self-Resistance” (Biodesign Research, 2024).
“And” between values parts separate entries of the source, which are not always exact repeats. Equal values may be shown once.

Key:
[1] = target: T1, AthDHAD (Arabidopsis thaliana, UniProt Q9LIR4); test: In vitro activity and AA inhibition assay of AthDHAD; format: biochemical, A. thaliana; conditions: AthDHAD wild type
T1 construct: made in house; host or cells: E. coli BL21(DE3)
T1 sequence (Q9LIR4 35-608): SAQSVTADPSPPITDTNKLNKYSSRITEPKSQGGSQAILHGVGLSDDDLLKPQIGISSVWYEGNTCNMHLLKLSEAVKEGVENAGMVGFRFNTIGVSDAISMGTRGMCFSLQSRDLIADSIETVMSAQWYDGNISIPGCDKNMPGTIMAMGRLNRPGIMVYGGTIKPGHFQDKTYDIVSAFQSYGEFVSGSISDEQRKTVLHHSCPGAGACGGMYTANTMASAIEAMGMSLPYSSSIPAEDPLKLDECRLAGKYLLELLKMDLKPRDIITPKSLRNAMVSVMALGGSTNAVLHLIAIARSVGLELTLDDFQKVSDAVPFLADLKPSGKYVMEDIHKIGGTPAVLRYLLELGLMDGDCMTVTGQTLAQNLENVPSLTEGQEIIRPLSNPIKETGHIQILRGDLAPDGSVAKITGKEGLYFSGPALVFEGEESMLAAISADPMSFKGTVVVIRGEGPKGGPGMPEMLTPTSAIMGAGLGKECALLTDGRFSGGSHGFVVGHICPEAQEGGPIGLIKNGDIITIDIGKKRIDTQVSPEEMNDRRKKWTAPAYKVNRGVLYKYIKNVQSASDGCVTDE
Experimental: (§1) In vitro activity assays were carried out in 25 μl of reaction mixture containing A10 buffer without NaCl. The Michaelis–Menten constants (kcat, KM) for each enzyme were calculated by fitting the following formula to the observed reaction rate. V=VmaxS/KM+S Vmax=kcatE0
(§2) The inhibition percentages of AA on AthDHADs were determined using in vitro biochemical assays and calculated with the following equation:
(§3) Inhibition percentage = 100 − 100 × (initial reaction rate with AA/initial reaction rate without AA)
(§4) The inhibition assays were conducted with either 10 mM (±)-sodium-α,β-dihydroxyisovalerate (DHI) or 10 mM (±)-sodium-α,β-dihydroxymethylvalerate hydrate (DHMV), along with 0.5 μM of purified AthDHAD enzyme or its mutants. The reaction was initiated by adding the corresponding enzymes, followed by a 20-min incubation at 28°C. To halt the reactions, an equal volume of acetonitrile was introduced. Subsequently, approximately 0.04 volumes of 100 mM phenylhydrazine were added to facilitate the derivatization of the product, either 2-keto-isovalerate or 2-keto-3-methylvalerate, at room temperature for 30 min. For HPLC analysis, 10 μl of the reaction mixture was utilized.

[2] = tested on: Transgenic A. thaliana expressing AstD; parameters: method as in PMID 29995859; conditions: cited from earlier work
[3] = tested on: AteDHAD; parameters: method as in PMID 29995859; conditions: housekeeping DHAD from A. terreus (XP_001208445.1); cited from earlier work
[4] = tested on: A. thaliana; parameters: method as in PMID 29995859; conditions: A. thaliana as a model plant organism; cited from earlier work
[5] = target: T2, AthDHAD-V496L (Arabidopsis thaliana, UniProt Q9LIR4, V530L); test: In vitro activity and AA inhibition assay of AthDHAD mutant V496L; format: biochemical, A. thaliana; conditions: DHI as substrate (10 mM), 0.5 μM enzyme
T2 construct: made in house; host or cells: E. coli BL21(DE3)
Experimental: as §1, §2, §3, §4

[6] = target: T3, AthDHAD-V497I (Arabidopsis thaliana, UniProt Q9LIR4, V531I); test: In vitro activity and AA inhibition assay of AthDHAD mutant V497I; format: biochemical, A. thaliana; conditions: DHI as substrate (10 mM), 0.5 μM enzyme
T3 construct: made in house; host or cells: E. coli BL21(DE3)
Experimental: as §1, §2, §3, §4

[7] = target: T4, AthDHAD-I177L-V497L (Arabidopsis thaliana, UniProt Q9LIR4, I211L/V531L); test: In vitro activity and AA inhibition assay of AthDHAD double mutant I177L/V497L; format: biochemical, A. thaliana
T4 construct: made in house; host or cells: E. coli BL21(DE3)
Experimental: as §1, §2, §3, §4

[8] = target: T5, AthDHAD-V497F (Arabidopsis thaliana, UniProt Q9LIR4, V531F); test: In vitro activity and AA inhibition assay of AthDHAD mutant V497F; format: biochemical, A. thaliana; conditions: DHI as substrate (10 mM), 0.5 μM enzyme
T5 construct: made in house; host or cells: E. coli BL21(DE3)
Experimental: as §1, §2, §3, §4

[9] = target: T6, AthDHAD-V178L-V497L (Arabidopsis thaliana, UniProt Q9LIR4, V212L/V531L); test: In vitro activity and AA inhibition assay of AthDHAD double mutant V178L/V497L; format: biochemical, A. thaliana
T6 construct: made in house; host or cells: E. coli BL21(DE3)
Experimental: as §1, §2, §3, §4

[10] = target: T7, AthDHAD-V178L (Arabidopsis thaliana, UniProt Q9LIR4, V212L); test: In vitro activity and AA inhibition assay of AthDHAD mutant V178L; format: biochemical, A. thaliana; conditions: DHI as substrate (10 mM), 0.5 μM enzyme
T7 construct: made in house; host or cells: E. coli BL21(DE3)
Experimental: as §1, §2, §3, §4

[11] = target: T8, AthDHAD-V497L (Arabidopsis thaliana, UniProt Q9LIR4, V531L); test: In vitro activity and AA inhibition assay of AthDHAD mutant V497L; format: biochemical, A. thaliana
T8 construct: made in house; host or cells: E. coli BL21(DE3)
Experimental: as §1, §2, §3, §4

[12] = target: T1, AthDHAD; conditions: cited from earlier work
[13] = target: T9, AthDHAD-I177L (Arabidopsis thaliana, UniProt Q9LIR4, I211L); test: In vitro activity and AA inhibition assay of AthDHAD mutant I177L; format: biochemical, A. thaliana
T9 construct: made in house; host or cells: E. coli BL21(DE3)
Experimental: as §1, §2, §3, §4

[14] = target: T10, AthDHAD-I177F (Arabidopsis thaliana, UniProt Q9LIR4, I211F); test: In vitro activity and AA inhibition assay of AthDHAD mutant I177F; format: biochemical, A. thaliana
T10 construct: made in house; host or cells: E. coli BL21(DE3)
Experimental: as §1, §2, §3, §4

[15] = target: T11, AthDHAD-I177L-V496L (Arabidopsis thaliana, UniProt Q9LIR4, I211L/V530L); test: In vitro activity and AA inhibition assay of AthDHAD double mutant I177L/V496L; format: biochemical, A. thaliana
T11 construct: made in house; host or cells: E. coli BL21(DE3)
Experimental: as §1, §2, §3, §4

[16] = target: T12, AthDHAD-V178F (Arabidopsis thaliana, UniProt Q9LIR4, V212F); test: In vitro activity and AA inhibition assay of AthDHAD mutant V178F; format: biochemical, A. thaliana; conditions: DHI as substrate (10 mM), 0.5 μM enzyme
T12 construct: made in house; host or cells: E. coli BL21(DE3)
Experimental: as §1, §2, §3, §4

[17] = target: T13, AthDHAD-V496F (Arabidopsis thaliana, UniProt Q9LIR4, V530F); test: In vitro activity and AA inhibition assay of AthDHAD mutant V496F; format: biochemical, A. thaliana
T13 construct: made in house; host or cells: E. coli BL21(DE3)
Experimental: as §1, §2, §3, §4

[18] = tested on: A. thaliana transgenic lines with mutant AthDHAD (V178L and V496L); test: Growth inhibition of AA on transgenic A. thaliana with mutant AthDHAD (V178L and V496L); format: in vivo; conditions: 100 μM AA on Murashige and Skoog medium, day 7; V178L and V496L lines compared to line expressing AstD
Source text: The gene block containing DHAD variants, and the 2XFLAG-tag was synthesized and then cloned into modified pEG302 vector using Gateway LR Clonase II Enzyme Mix (Thermo Fisher Scientific). Ubiquitin-10 promoter was used to drive the expression of DHAD variants. The construct was electrotransformed into Agrobacterium tumefaciens strain Agl0 and then transformed into A. thaliana rdr6-15 in which the transgene silencing pathway is blocked. Positive transgenic plants were selected using the hygromycin B and were tested for survival in the presence of AA.
A. thaliana seeds were sterilized with 70% ethanol and sown on Murashige and Skoog medium supplemented with either ethanol control or 100 μM AA. Photos were taken, and fresh weights were measured at day 7.

[19] = target: T14, AthDHAD-V178I (Arabidopsis thaliana, UniProt Q9LIR4, V212I); test: In vitro activity and AA inhibition assay of AthDHAD mutant V178I; format: biochemical, A. thaliana; conditions: DHI as substrate (10 mM), 0.5 μM enzyme
T14 construct: made in house; host or cells: E. coli BL21(DE3)
Experimental: as §1, §2, §3, §4

[20] = target: T15, AthDHAD-V496I (Arabidopsis thaliana, UniProt Q9LIR4, V530I); test: In vitro activity and AA inhibition assay of AthDHAD mutant V496I; format: biochemical, A. thaliana
T15 construct: made in house; host or cells: E. coli BL21(DE3)
Experimental: as §1, §2, §3, §4

[21] = tested on: AstD; conditions: cited from earlier work
[22] = target: T16, AthDHAD-V178W (Arabidopsis thaliana, UniProt Q9LIR4, V212W); test: In vitro activity and AA inhibition assay of AthDHAD mutant V178W; format: biochemical, A. thaliana; conditions: DHI as substrate (10 mM), 0.5 μM enzyme
T16 construct: made in house; host or cells: E. coli BL21(DE3)
Experimental: as §1, §2, §3, §4

T3 sequence (Q9LIR4 35-608 V531I): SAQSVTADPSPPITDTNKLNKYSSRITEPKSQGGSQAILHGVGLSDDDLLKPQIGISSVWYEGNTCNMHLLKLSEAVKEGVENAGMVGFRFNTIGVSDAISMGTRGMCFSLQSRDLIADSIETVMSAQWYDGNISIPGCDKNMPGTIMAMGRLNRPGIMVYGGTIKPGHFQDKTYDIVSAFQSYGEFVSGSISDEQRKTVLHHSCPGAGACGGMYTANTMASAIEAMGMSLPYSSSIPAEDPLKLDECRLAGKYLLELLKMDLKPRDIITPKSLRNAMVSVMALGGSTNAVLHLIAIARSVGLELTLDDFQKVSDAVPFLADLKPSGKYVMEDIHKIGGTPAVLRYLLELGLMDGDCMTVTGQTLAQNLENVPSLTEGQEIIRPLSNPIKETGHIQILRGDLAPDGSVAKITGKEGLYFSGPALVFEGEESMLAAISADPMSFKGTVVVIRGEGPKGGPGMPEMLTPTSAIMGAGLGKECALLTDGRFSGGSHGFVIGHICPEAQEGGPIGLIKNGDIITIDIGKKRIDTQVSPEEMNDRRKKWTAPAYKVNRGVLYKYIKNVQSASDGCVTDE
T14 sequence (Q9LIR4 35-608 V212I): as the sequence (Q9LIR4 35-608 V531I) above, with V178I, I497V counted along it
T16 sequence (Q9LIR4 35-608 V212W): as the sequence (Q9LIR4 35-608 V531I) above, with V178W, I497V counted along it
T2 sequence (Q9LIR4 35-608 V530L): as the sequence (Q9LIR4 35-608 V531I) above, with V496L, I497V counted along it
T5 sequence (Q9LIR4 35-608 V531F): as the sequence (Q9LIR4 35-608 V531I) above, with I497F counted along it
T7 sequence (Q9LIR4 35-608 V212L): as the sequence (Q9LIR4 35-608 V531I) above, with V178L, I497V counted along it
T12 sequence (Q9LIR4 35-608 V212F): as the sequence (Q9LIR4 35-608 V531I) above, with V178F, I497V counted along it
T10 sequence (Q9LIR4 35-608 I211F): as the sequence (Q9LIR4 35-608 V531I) above, with I177F, I497V counted along it
T6 sequence (Q9LIR4 35-608 V212L/V531L): as the sequence (Q9LIR4 35-608 V531I) above, with V178L, I497L counted along it
T15 sequence (Q9LIR4 35-608 V530I): as the sequence (Q9LIR4 35-608 V531I) above, with V496I, I497V counted along it
T13 sequence (Q9LIR4 35-608 V530F): as the sequence (Q9LIR4 35-608 V531I) above, with V496F, I497V counted along it
T8 sequence (Q9LIR4 35-608 V531L): as the sequence (Q9LIR4 35-608 V531I) above, with I497L counted along it
T4 sequence (Q9LIR4 35-608 I211L/V531L): as the sequence (Q9LIR4 35-608 V531I) above, with I177L, I497L counted along it
T11 sequence (Q9LIR4 35-608 I211L/V530L): as the sequence (Q9LIR4 35-608 V531I) above, with I177L, V496L, I497V counted along it
T9 sequence (Q9LIR4 35-608 I211L): as the sequence (Q9LIR4 35-608 V531I) above, with I177L, I497V counted along it

In the case of `CC[C@@](C)(O)[C@@H](O)C(=O)O` (racemic) [DHMV, (±)-sodium-α,β-dihydroxymethylvalerate hydrate, reference compound], the Km ([1]; substrate DHMV) is reported as 4 ± 0.45 mM and the kcat ([1]; substrate DHMV) is reported as 6.50 ± 0.32 s⁻¹.
In the case of `CC(C)=C1CCC23COC(C2)C(O)(C(=O)O)CCC13` (centres unmarked) [AA, aspterric acid], the “resistance of transgenic plants to AA” value [2] is listed as “strong resistance”, the mode of inhibition [3] is listed as “competitive inhibitor” and the “herbicidal effect in spray experiments” value [4] is listed as “effective as an herbicide”. The IC50 [5] was 820 nM and 824 nM, the IC50 [6] was 73.3 nM and 73 nM and the IC50 [7] was 28 nM. The IC50 [8] was 1250 nM, the IC50 [9] was 396 ± 11 nM and the IC50 ([1]; DHI as substrate (10 mM), 0.5 μM enzyme) was 250 nM and 249 nM. For the same compound, the IC50 [10] was 970 nM and 974 nM, the IC50 [11] was 59 nM and the Ki ([12]; binding of AA to AthDHAD as a competitive inhibitor) was ~300 nM. For the same compound, the mode of inhibition ([12]; housekeeping DHAD from A. thaliana (AT3G23940)) was “competitive inhibitor”, the IC50 [13] was 50 ± 1 nM and the IC50 [14] was 37000 ± 8770 nM. For the same compound, the IC50 [15] was 309 ± 74 nM, the IC50 [16] was 6000 nM and 5990 nM and the IC50 [17] was 2940 nM. For the same compound, the “growth of transgenic plants in the presence of AA” value [18] was “not able to rescue the growth of the plants”, the IC50 [19] was 430 nM and 431 nM and the IC50 [20] was 1140 ± 52 nM. For the same compound, the “AA resistance observed in AstD” value ([21]; reported) was “over 8 mM”, the “sensitivity of AstD to AA” value ([21]; within the solubility limit (8 mM)) was “completely insensitive” and the IC50 [22] was 2340 nM.
